Source: article PMC4963535, “Structure-guided development of heterodimer-selective GPCR ligands” (Nature Communications, 2016)
Entries after “also recorded” stand apart in the source; their conditions may differ.

Tests used:
[1] = target: T1, hD3R (Homo sapiens, UniProt P35462); test: [3H]spiperone displacement, membranes from CHO cells stably expressing hD3R; assay type: binding
T1 construct: expressed in transfected cells

[2] = target: T2, D2R/NTS1R (Homo sapiens, UniProt P14416+P30989); test: β-arrestin-2 recruitment (DiscoveRx PathHunter), HEK 293 cells with ProLink-tagged D2R and NTS1R; assay type: cell-based; conditions: D2R/NTS1R-coexpressing cells
T2 construct: host or cells: HEK 293 stably expressing EA-tagged β-arrestin-2
T2 sequence (P14416 1-414 isoform P14416-2): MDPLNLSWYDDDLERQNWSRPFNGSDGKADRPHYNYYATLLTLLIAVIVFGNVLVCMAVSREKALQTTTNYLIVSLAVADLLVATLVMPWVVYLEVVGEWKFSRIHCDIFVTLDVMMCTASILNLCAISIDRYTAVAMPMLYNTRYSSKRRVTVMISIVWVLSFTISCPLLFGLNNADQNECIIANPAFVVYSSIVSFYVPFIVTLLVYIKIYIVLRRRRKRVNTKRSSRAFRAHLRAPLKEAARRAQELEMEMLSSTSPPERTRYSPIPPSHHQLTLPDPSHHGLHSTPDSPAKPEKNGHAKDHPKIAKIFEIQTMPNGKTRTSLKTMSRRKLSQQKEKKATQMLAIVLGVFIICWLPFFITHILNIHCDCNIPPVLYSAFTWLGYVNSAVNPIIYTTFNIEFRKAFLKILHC
T2 sequence (P30989 whole entry): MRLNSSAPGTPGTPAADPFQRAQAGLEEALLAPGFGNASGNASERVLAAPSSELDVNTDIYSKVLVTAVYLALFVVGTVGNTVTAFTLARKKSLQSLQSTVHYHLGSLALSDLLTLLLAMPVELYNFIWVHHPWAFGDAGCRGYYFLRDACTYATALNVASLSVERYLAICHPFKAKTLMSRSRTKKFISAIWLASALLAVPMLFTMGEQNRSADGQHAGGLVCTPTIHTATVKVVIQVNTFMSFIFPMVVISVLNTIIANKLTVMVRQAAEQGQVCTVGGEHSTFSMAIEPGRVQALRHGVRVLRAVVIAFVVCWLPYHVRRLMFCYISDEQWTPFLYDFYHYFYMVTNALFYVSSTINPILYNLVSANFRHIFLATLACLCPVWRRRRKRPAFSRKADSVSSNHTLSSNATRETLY
Procedure: (§1) The measurement of β-arrestin-2 recruitment stimulated by receptor activation was performed by utilizing the PathHunter assay purchased from DiscoveRx (Birmingham, UK) according to the manufacturer's protocol. […] Dose–response curves were calculated by nonlinear regression using the algorithms of PRISM 6.0. Control experiments were performed using the same approach and transfection of ProLink(PK1)-tagged PAR2 together with wild-type NTS1R. […] Resulting responses were then normalized to the effect of the PAR2 agonist f-LIGRLO-NH2.

[3] = target: T3, D2R_D80A/NTS1R (Homo sapiens, UniProt P14416+P30989, D80A); test: β-arrestin-2 recruitment (DiscoveRx PathHunter), ProLink-tagged signalling incompetent D2R_D80A coexpressed with NTS1R; assay type: cell-based
T3 construct: host or cells: HEK 293 stably expressing EA-tagged β-arrestin-2
T3 sequence (P14416 1-414 isoform P14416-2 D80A): as the sequence (P14416 1-414 isoform P14416-2) above, with D80A counted along it
T3 sequence (P30989 whole entry): as the sequence (P30989 whole entry) above
Procedure: as §1

[4] = target: D2LR/NTS1R (Homo sapiens, UniProt P14416+P30989); test: [3H]spiperone displacement, membranes from HEK 293 T cells coexpressing D2LR and NTS1R
Chain of D2LR/NTS1R (P14416 whole entry): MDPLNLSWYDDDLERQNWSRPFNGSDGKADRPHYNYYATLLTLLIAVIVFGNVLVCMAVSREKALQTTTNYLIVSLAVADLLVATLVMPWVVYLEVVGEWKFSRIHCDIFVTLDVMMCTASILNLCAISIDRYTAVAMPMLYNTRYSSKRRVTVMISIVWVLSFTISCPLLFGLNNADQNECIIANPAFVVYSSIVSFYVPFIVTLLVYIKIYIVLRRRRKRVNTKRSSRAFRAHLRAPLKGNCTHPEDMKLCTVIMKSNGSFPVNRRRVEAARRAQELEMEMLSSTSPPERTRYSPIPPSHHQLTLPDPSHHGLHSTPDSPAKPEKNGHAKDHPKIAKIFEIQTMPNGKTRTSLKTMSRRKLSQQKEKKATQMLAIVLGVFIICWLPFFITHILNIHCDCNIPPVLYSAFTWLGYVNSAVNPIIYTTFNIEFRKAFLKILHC
Chain of D2LR/NTS1R (P30989 whole entry): as the sequence (P30989 whole entry) above
Procedure: (§2) Receptor-binding studies were carried out in analogy to a previously described method[53]. […] Protein concentration was established by the method of Lowry using bovine serum albumin as standard[54].
(§3) The resulting competition curves of the receptor-binding experiments were analysed by nonlinear regression using the algorithms in PRISM 6.0 (GraphPad Software, San Diego, CA). For each individual experiment, the data were fitted using a monophasic competition model to provide an IC50 value, which was then transformed into a Ki value according to the equation of Cheng and Prusoff[55].

[5] = target: T4, D2R (Homo sapiens, UniProt P14416); test: Antagonist effect on quinpirole-mediated inhibition of cAMP accumulation, HEK 293T cells expressing D2R; assay type: cell-based; conditions: 10 nM quinpirole
T4 construct: expressed in transfected cells; host or cells: HEK 293 T
T4 sequence (P14416 1-414 isoform P14416-2): as the sequence (P14416 1-414 isoform P14416-2) above
Procedure: (§4) 24 h post-transfection cells were seeded into white half-area 96-well plates at 2.0 × 10^4 cells per well and grown overnight. On the following day phenol red free medium was removed and replaced by PBS and cells were serum starved for 1 h before treatment. The assay was started by adding 10 μl coelenterazine-h (Promega, Mannheim, Germany) to each well to yield a final concentration of 5 μM. After 5 min incubation, compounds were added in PBS containing 50 μM forskolin (final concentration 10 μM). Reads of the plates started 15 min after agonist addition. BRET readings were collected using a CLARIOstar plate reader (BMG LabTech, Ortenberg, Germany). […] Curves were normalized to basal BRET ratio obtained from dPBS (0%) and the effect of 10 μM forskolin (100%).

[6] = target: T5, hD4.4R (Homo sapiens, UniProt P21917); test: [3H]spiperone displacement, membranes from CHO cells stably expressing hD4.4R; assay type: binding
T5 construct: expressed in transfected cells
T5 sequence (P21917 1-419): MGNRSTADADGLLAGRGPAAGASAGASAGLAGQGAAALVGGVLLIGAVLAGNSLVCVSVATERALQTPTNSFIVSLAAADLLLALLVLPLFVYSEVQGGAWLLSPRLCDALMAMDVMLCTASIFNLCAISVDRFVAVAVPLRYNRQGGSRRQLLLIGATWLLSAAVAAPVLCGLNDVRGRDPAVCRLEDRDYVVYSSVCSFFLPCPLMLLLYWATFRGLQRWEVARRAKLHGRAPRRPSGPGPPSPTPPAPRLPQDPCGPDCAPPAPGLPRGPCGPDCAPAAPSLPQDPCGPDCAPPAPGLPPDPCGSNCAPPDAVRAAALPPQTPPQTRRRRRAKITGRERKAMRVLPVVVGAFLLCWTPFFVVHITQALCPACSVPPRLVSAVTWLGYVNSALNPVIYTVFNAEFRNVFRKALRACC
Source text: (§5) In brief, competition binding experiments with the human D2LR, D2SR38, D3R39, and D4.4R40 receptors were perfomed using preparations of membranes from CHO cells stably expressing the corresponding receptor together with
(§6) the D2LR, D2SR, D3R, and D4.4R receptors, respectively. Homogenates from CHO cells stably expressing the human NTS1R (cDNA purchased from Missouri S&T cDNA Resource Center (UMR), Rolla, MO) at
(§7) 1; PerkinElmer, Rodgau, Germany). Human NTS2R binding was achieved using homogenates from HEK
(§8) method41. Membranes were incubated at a final concentration of 4 µg per well with Bmax values of 350-
(§9) Freiburg, Germany). Unspecific binding was determined in the presence of haloperidol (10 µM for D2LR-
(§10) Protein concentration was established by the method of Lowry using bovine serum albumin as standard42.

[7] = target: T6, D2SR/NTS1R (Homo sapiens, UniProt P14416+P30989); test: cAMP BRET assay (CAMYEL biosensor), HEK 293 T cells coexpressing D2SR and NTS1R; assay type: cell-based; conditions: for Emax: HEK-293T, read-out: Effect (Emax) D2SR/NTS1R, cAMP accumulation
T6 construct: expressed in transfected cells; host or cells: HEK 293 T
T6 sequence (P14416 1-414 isoform P14416-2): as the sequence (P14416 1-414 isoform P14416-2) above
T6 sequence (P30989 whole entry): as the sequence (P30989 whole entry) above
Procedure: as §4

[8] = target: T7, D2SR (Homo sapiens, UniProt P14416); test: cAMP BRET assay (CAMYEL biosensor), HEK 293 T cells expressing D2SR; assay type: cell-based
T7 construct: expressed in transfected cells; host or cells: HEK 293 T
T7 sequence (P14416 1-414 isoform P14416-2): as the sequence (P14416 1-414 isoform P14416-2) above
Procedure: as §4

[9] = target: T8, NTS1R (Homo sapiens, UniProt P30989); test: cAMP BRET assay (CAMYEL biosensor), HEK 293 T cells expressing NTS1R; assay type: cell-based; set-up: expressed in transfected cells; host or cells: HEK 293 T
T8 sequence (P30989 whole entry): as the sequence (P30989 whole entry) above
Procedure: as §4

[10] = target: T8, NTS1R; test: radioligand displacement, homogenates from CHO cells stably expressing human NTS1R; assay type: binding; conditions: [3H]NT, mean ± s.d.
Source text: as §5, §6, §7, §8, §9, §10

[11] = target: T9, hNTS2R (Homo sapiens, UniProt O95665); test: [3H]NT(8-13) displacement, homogenates from transiently transfected HEK 293T cells, human NTS2R; assay type: binding
T9 construct: host or cells: HEK 293T
T9 sequence (O95665 whole entry): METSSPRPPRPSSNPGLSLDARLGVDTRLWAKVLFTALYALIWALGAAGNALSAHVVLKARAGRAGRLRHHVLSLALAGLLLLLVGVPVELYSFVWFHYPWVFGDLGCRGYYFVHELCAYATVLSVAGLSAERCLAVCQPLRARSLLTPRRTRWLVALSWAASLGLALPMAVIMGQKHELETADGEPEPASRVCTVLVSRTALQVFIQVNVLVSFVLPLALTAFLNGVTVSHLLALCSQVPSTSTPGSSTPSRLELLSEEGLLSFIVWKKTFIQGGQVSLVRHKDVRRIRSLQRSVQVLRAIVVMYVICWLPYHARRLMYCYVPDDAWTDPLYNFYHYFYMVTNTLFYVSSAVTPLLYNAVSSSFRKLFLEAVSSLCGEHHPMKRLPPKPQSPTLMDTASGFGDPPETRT
Source text: as §5, §6, §7, §8, §9, §10

[12] = target: T10, human D2LR (Homo sapiens, UniProt P14416); test: [3H]spiperone displacement, membranes from HEK 293 T cells transiently transfected with D2LR; assay type: binding; conditions: D2LR monoexpression; mean ± s.e.m.
T10 construct: host or cells: HEK 293 T
T10 sequence (P14416 whole entry): as the sequence (P14416 whole entry) above
Procedure: as §2, §3

[13] = target: T11, hD2SR (Homo sapiens, UniProt P14416); test: [3H]spiperone displacement, membranes from CHO cells stably expressing hD2SR; assay type: binding
T11 construct: expressed in transfected cells
T11 sequence (P14416 1-414 isoform P14416-2): as the sequence (P14416 1-414 isoform P14416-2) above
Source text: as §5, §6, §7, §8, §9, §10

[14] = target: T3, D2R_D80A/NTS1R; test: cAMP accumulation, cells coexpressing signalling incompetent D2R (D80A) and NTS1R; assay type: cell-based
Procedure: as §4
inhibit cAMP accumulation.
Data represent mean ± s.e.m.
of 3 independent experiments, each performed in triplicate.

[15] = target: T12, hD2LR (Homo sapiens, UniProt P14416); test: [3H]spiperone displacement, membranes from CHO cells stably expressing hD2LR; assay type: binding
T12 construct: expressed in transfected cells
T12 sequence (P14416 whole entry): as the sequence (P14416 whole entry) above

T1 sequence (P35462 whole entry): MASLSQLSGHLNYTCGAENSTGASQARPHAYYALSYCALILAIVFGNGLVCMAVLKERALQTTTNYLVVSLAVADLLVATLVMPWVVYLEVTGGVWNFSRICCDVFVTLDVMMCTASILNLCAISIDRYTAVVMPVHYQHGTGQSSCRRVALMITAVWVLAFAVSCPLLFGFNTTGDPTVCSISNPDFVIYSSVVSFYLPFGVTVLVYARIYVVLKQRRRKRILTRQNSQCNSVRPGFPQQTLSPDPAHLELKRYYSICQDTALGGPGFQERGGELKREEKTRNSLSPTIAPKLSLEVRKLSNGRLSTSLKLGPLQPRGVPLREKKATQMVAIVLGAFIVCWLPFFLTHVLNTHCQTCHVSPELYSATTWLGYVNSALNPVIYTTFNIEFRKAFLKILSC

CC[C@H](C)[C@H](NC(=O)[C@H](Cc1ccc(O)cc1)NC(=O)[C@@H]1CCCN1C(=O)[C@H](CCCNC(=N)N)NC(=O)[C@H](CCCNC(=N)N)NC(=O)CCOCCOCCOCCOCCOCCOCCNC(=O)CCOCCOCCOCCOCCOCCOCCNC(=O)c1ccc(-c2ccc(-n3cc(CCCCN4CCN(c5ccccc5OC)CC4)nn3)cc2)cc1)C(=O)N[C@@H](CC(C)C)C(=O)O [2b]
Ki [1]: 5.5 ± 0.9 nM | concentration of maximum β-arrestin-2 recruitment (bell-shaped curve) [2]: 300 nM | concentration of maximum effect (bell-shaped curve), D2R_D80A/NTS1R [3]: 300 nM | preference for the high- over the low-affinity binding site in the presence of GppNHp ([4]; 100 μM GppNHp): 330 fold | Fraction high (fraction representing the high-affinity binding site) ([4]; D2LR:NTS1R 1:2, mean ± s.e.m.): 55 ± 3% | high affinity binding sites (fraction) ([4]; D2R/NTS1R = 2:1): 49 ± 3% | high affinity binding sites (fraction) ([4]; D2R/NTS1R = 3:1): 30 ± 3% | fraction high +GppNHp ([4]; in presence of 100 μM GppNHp): 46 ± 3% | antagonist behaviour at D2R (in words) [5]: neutral antagonists; also recorded: fully inhibit the effect of 10 nM quinpirole | Ki [6]: 180 ± 20 nM | Emax [7]: 31 ± 3% | change of cAMP levels in the absence of forskolin ([7]; no forskolin, vehicle 0 %, maximum effect of NT(8-13) 100 %): 83% | effect on forskolin-induced cAMP accumulation, cells expressing D2R only (in words) ([8]; 10 μM forskolin): remained without significant effects

CCCN(CCCCc1cn(-c2ccc(-c3ccc(C(=O)NCCOC)cc3)cc2)nn1)C1Cc2ccccc2C1 [3g]
receptor activation (cAMP), cells monoexpressing NTS1R (in words) ([9]; 10 μM forskolin): caused no effect | cAMP response, cells expressing NTS1R only, absence of FSK (in words) ([9]; no forskolin): do not elicit any response | Ki [10]: 180 ± 40 nM | Ki [1]: 0.53 ± 0.25 nM | Ki [11]: 300 ± 250 nM | Emax [7]: -63 ± 2% | EC50 ([7]; read-out: EC50 D2SR/NTS1R, cAMP accumulation): 3.5 ± 1.4 nM | Ki [12]: 21 ± 4 nM | Ki [13]: 3.3 ± 0.8 nM | inhibition of cAMP accumulation, D2R (D80A)/NTS1R (in words) [14]: unable to inhibit cAMP accumulation | Ki [15]: 7.6 ± 1.7 nM | Emax ([8]; HEK-293T, read-out: Effect (Emax) D2SR, cAMP accumulation): -65 ± 1% | EC50 ([8]; read-out: EC50 D2SR, cAMP accumulation): 2.8 ± 0.4 nM
